Results from paper PMC8187479, “Sugar phosphate activation of the stress sensor eIF2B” (Nature Communications, 2021).

T1: eIF2Bα^V183F (Homo sapiens, UniProt Q14232, V183F)
T1 construct: made in house; host or cells: E. coli BL21(DE3)
T1 sequence (Q14232 1-305 V183F): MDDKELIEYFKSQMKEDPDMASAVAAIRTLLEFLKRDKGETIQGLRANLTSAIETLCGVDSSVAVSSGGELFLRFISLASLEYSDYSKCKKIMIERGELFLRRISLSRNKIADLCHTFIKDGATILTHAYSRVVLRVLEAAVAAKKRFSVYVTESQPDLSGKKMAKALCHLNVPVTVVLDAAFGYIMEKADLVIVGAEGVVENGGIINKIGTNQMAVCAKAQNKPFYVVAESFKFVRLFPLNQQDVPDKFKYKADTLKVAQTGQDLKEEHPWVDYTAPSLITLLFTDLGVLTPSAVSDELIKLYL


Key:
[1] = target: T2, eIF2B decamer in eIF2Bα^E198K HEK293T lysate (Homo sapiens, UniProt P49770+Q14232+Q9UI10, E198K); test: Sucrose gradient centrifugation, eIF2B complex assembly, eIF2Bα E198K HEK293T lysate; type: biochemical
T2 construct: endogenous in cells; host or cells: HEK293T, CRISPR knock-in eIF2Bα E198K (homozygous), lysate
Description: (§1) WT or eIF2Bα mutant HEK293T cells were harvested and lysed in 50 mM HEPES, 400 mM KCl, 1 mM DTT, 4 mM Mg(OAc)2, pH 7.5 + 0.5% Triton-X-100 + EDTA-free protease inhibitor cocktail (Roche) on ice for 30 min. Lysates were cleared by centrifugation at 48,000 × g, 4 °C for 30 min. 100 μL of each cleared lysate was loaded onto a 5–20% sucrose gradient prepared in a 13 × 51 mm ultracentrifuge tube using a Gradient Station (Biocomp) and centrifuged in a SW55 Ti rotor at 152,000 × g, 4 °C for 12 h. After centrifugation, 24 × 200 μL fractions were manually collected from the top to bottom of each gradient. Each fraction was subjected to methanol/chloroform precipitation and SDS-PAGE followed by Western Blot with the indicated antibodies. Blots were imaged on a ChemiDoc MP (Bio-Rad), and band intensities were quantified using the instrument’s Image Lab software. Each value was then divided by total intensity obtained across all fractions to determine percent enrichment of each subunit in each fraction.

[2] = target: T3, recombinant eIF2B(βδγε) ± eIF2Bα2 (Homo sapiens, UniProt P49770+Q14232+Q9UI10); test: Size-exclusion chromatography of recombinant eIF2B(βδγε) with or without eIF2Bα; type: biochemical; conditions: SEC, recombinant eIF2B(βδγε) + eIF2Bα2; 500 nM ISRIB, 200 μM F6P
T3 construct: made in house; host or cells: eIF2Bα: E. coli BL21(DE3)
Description: (§2) Purified proteins were thawed and centrifuged at 20,000 × g, 10 min, 4 °C to remove any potential precipitate. Concentrations of eIF2B(βδγε) and eIF2Bα were normalized to 2 μM and 2.4 μM, respectively. 0.2 mL of each mixture was injected onto a Superose 6 Increase 10/300 column connected to an AKTA Pure 25 FPLC system (GE Healthcare). The system was run at 0.5 mL/min for 1 h using 25 mM HEPES, 200 mM KCl, 2 mM MgCl2, 1 mM DTT, pH 7.5 as the mobile phase. For conditions with ISRIB, the protein samples and mobile phase were supplemented with 500 nM ISRIB. For conditions with F6P, the protein samples and mobile phase were supplemented with 200 μM F6P. UV280 measurements were obtained directly by the instrument.

[3] = target: T4, recombinant eIF2B(βδγε) ± eIF2Bα2 (Homo sapiens, UniProt P49770+Q9UI10); test: as above; type: biochemical; conditions: SEC, recombinant eIF2B(βδγε); 500 nM ISRIB, 200 μM F6P
T4 construct: made in house; host or cells: eIF2Bα: E. coli BL21(DE3)
T4 sequence (P49770 whole entry): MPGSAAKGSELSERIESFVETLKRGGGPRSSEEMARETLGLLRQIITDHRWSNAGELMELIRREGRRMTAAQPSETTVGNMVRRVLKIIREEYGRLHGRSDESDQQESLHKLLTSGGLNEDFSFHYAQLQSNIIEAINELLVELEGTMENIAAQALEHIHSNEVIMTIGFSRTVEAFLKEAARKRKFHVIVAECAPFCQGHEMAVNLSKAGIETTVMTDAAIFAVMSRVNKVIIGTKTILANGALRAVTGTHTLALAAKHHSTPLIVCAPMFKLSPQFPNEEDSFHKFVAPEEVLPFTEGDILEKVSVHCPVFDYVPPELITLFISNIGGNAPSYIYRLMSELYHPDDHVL
T4 sequence (Q9UI10 2-523): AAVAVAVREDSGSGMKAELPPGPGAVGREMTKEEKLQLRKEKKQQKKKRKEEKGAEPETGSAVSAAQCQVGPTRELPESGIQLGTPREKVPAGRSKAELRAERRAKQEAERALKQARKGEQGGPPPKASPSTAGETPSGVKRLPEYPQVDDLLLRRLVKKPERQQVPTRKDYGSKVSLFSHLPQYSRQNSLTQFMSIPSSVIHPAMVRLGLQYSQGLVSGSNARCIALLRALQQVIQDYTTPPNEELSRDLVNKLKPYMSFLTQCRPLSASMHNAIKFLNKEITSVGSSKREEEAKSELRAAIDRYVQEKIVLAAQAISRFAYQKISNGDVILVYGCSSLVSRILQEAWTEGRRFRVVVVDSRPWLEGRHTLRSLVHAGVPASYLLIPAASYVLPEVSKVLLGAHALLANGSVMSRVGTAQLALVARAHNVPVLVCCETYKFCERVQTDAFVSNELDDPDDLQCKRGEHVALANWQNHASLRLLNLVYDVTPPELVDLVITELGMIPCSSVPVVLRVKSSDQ
T4 sequence (Q9NR50 whole entry partner): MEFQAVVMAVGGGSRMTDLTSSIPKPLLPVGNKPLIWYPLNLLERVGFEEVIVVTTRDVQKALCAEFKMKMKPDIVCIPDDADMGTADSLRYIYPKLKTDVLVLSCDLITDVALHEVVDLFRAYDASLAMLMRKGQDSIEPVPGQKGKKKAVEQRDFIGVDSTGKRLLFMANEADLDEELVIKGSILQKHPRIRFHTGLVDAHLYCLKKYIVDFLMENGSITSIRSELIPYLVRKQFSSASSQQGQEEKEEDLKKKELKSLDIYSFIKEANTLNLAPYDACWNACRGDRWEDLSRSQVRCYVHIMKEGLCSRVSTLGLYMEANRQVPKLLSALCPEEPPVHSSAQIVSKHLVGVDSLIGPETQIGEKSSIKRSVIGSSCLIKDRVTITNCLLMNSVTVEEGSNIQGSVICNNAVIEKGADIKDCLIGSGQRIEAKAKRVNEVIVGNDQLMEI
T4 sequence (Q13144 whole entry partner): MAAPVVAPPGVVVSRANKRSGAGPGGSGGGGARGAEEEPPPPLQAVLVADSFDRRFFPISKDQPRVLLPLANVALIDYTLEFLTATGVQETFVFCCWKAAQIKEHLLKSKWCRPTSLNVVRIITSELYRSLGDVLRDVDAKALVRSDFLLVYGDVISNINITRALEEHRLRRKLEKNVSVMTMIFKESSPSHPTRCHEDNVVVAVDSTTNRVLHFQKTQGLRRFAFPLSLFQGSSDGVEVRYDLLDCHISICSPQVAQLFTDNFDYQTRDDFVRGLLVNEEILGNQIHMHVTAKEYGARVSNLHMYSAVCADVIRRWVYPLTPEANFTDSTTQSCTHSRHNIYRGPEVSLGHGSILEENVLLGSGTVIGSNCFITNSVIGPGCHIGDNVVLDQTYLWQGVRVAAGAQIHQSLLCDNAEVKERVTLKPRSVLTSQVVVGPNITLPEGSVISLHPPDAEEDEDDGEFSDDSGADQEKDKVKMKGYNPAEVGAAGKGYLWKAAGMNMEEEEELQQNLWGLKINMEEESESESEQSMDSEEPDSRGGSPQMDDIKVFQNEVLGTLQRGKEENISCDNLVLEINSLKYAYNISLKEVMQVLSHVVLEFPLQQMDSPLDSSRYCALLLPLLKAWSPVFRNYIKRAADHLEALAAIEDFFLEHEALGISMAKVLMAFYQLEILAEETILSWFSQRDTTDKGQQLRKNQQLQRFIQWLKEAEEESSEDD
Description: as §2

[4] = target: T5, eIF2B decamer in eIF2Bα^V183F HEK293T lysate (Homo sapiens, UniProt P49770+Q14232+Q9UI10, V183F); test: Sucrose gradient centrifugation, eIF2B complex assembly, eIF2Bα V183F HEK293T lysate; type: biochemical; conditions: 500 nM ISRIB, 200 μM F6P
T5 construct: endogenous in cells
Description: as §1

[5] = target: T1, eIF2Bα^V183F; test: Size-exclusion chromatography of recombinant eIF2Bα V183F, alone or with eIF2B(βδγε); type: biochemical; conditions: SEC, eIF2Bα V183F alone
Description: as §2

[6] = target: T6, eIF2B in eIF2Bα^E198K HEK293T lysate (Homo sapiens, UniProt P49770+Q14232+Q9UI10, E198K); test: GEF activity assay with eIF2Bα E198K HEK293T lysate; type: biochemical
T6 construct: endogenous in cells; host or cells: HEK293T, CRISPR knock-in eIF2Bα E198K (homozygous), lysate
Description: (§3) Bodipy-FL-GDP-loaded eIF2 was used as a substrate for recombinant eIF2B. The assay was performed in 384-well plates. Reactions were read on a SpectraMax i3x plate reader (Molecular Devices) using the instrument’s Softmax Pro software with the following parameters: plate temperature = 25 °C; excitation wavelength = 485 nm (15 nm width); emission wavelength = 535 nm (25 nm width); read duration = 30 min at 45 s intervals. Data were analyzed in Prism. GDP release half-lives were calculated by fitting single-exponential decay curves.
(§4) For unbiased screening, MIDAS metabolite libraries at 10 mM stock concentration were dispensed into wells of the assay plate using an Echo Acoustic Liquid Handler (Labcyte). In a final assay volume of 10 μL/well, the following conditions were kept constant: 25 nM Bodipy-FL-GDP-loaded eIF2, 4 nM phospho-eIF2, 0.1 mM GDP, 1 mg/mL BSA, 1 nM eIF2B, 10 μM metabolite. A single well was run for each metabolite. For targeted experiments with recombinant wild-type and mutant eIF2Bα, the following conditions were used: 50 nM Bodipy-FL-GDP-loaded eIF2, 0.1 mM GDP, 1 mg/ml BSA, 20 nM eIF2B. For targeted experiments with HEK293T lysates, the following conditions were used: 50 nM Bodipy-FL-GDP-loaded eIF2, 0.1 mM GDP, 1 mg/ml BSA, 0.1 or 0.3 mg/ml lysates.

[7] = target: T7, eIF2B in WT HEK293T lysate (Homo sapiens, UniProt P49770+Q14232+Q9UI10); test: GEF activity assay with WT HEK293T lysate; type: biochemical
T7 construct: endogenous in cells; host or cells: HEK293T (wild type) lysate
Description: as §3, §4

[8] = target: T8, eIF2B decamer in WT HEK293T lysate (Homo sapiens, UniProt P49770+Q14232+Q9UI10); test: Sucrose gradient centrifugation, eIF2B complex assembly, WT HEK293T lysate; type: biochemical; conditions: 400 mM KCl, 5–20% sucrose gradient
T8 construct: endogenous in cells; host or cells: HEK293T (wild type) lysate
Description: as §1

[9] = target: T9, phospho-eIF2α binding to eIF2B (Homo sapiens, UniProt P49770+Q14232+Q9UI10); test: Phospho-eIF2α co-immunoprecipitation with FLAG-tagged eIF2B; conditions: lysate of thapsigargin-treated HEK293T eIF2Bβ-FLAG cells; ligand 2 h at 4 °C
T9 construct: endogenous in cells; host or cells: HEK293T with FLAG knock-in at the endogenous eIF2Bβ locus, treated with thapsigargin; lysate, anti-FLAG IP
T9 sequence (P49770 whole entry, one chain of several): as the sequence (P49770 whole entry) above
T9 sequence (Q9UI10 whole entry, one chain of several): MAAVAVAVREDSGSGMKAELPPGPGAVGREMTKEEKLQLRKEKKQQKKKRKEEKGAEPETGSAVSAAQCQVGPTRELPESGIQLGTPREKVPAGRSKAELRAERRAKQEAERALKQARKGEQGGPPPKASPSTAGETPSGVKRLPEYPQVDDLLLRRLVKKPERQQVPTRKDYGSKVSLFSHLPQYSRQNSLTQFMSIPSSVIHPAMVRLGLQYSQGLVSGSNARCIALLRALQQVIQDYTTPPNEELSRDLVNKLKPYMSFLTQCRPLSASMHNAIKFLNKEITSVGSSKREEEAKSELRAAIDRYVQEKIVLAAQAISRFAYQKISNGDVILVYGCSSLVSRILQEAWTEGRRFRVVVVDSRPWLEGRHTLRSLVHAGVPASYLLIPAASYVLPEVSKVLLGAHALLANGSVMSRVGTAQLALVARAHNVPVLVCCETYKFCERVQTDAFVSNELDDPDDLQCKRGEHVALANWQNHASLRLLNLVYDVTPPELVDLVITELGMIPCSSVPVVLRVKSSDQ
T9 sequence (Q9NR50 whole entry partner, one chain of several): as the sequence (Q9NR50 whole entry partner) above
T9 sequence (Q13144 whole entry partner, one chain of several): as the sequence (Q13144 whole entry partner) above
Description: HEK293T cells endogenously expressing eIF2Bβ with a C-terminal FLAG tag were maintained in DMEM High Glucose (Corning CellGro) supplemented with 10% FBS (Gibco) and antibiotic-antimycotic (Gibco). Upon reaching 90% confluency, cells were treated with either DMSO or 100 nM thapsigargin (Sigma) for 4 h. Cells were harvested and lysed in 25 mM HEPES, 150 mM KCl, 1% NP-40, 1 mM EDTA, pH 7.4 + Complete protease inhibitor cocktail (Roche) and PhosStop (Roche) on ice for 20 min. Lysates were cleared by centrifugation at 18,000 × g, 20 min, 4 °C, and transferred to Eppendorf tubes containing anti-FLAG M2 magnetic beads (Sigma). Mixtures were incubated overnight at 4 °C. To test the effect of ligands, these were added to the mixtures and incubated for an additional 2 h at 4 °C. Beads were washed three times with lysis buffer, eluted with 1× LDS buffer (Invitrogen), and subjected to SDS-PAGE followed by Western Blot with the indicated antibodies.

[10] = target: the molecule itself; test: SEC; purified eIF2Bα alone, 2.4 μM, Superose 6 Increase 10/300, 25 mM HEPES, 200 mM KCl, 2 mM MgCl2, 1 mM DTT, pH 7.5; no ligand (500 nM ISRIB had no effect)

eIF2B decamer formation [1]	complex formation in the presence of eIF2Bα [2]	complex formation in the absence of eIF2Bα [3]	monomer-to-dimer shift of eIF2Bα V183F [5]	effect on GEF activity of eIF2Bα E198K lysate [6]	effect on GEF activity of WT lysate [7]	eIF2B decamer formation (migration of eIF2Bα and eIF2Bδ) [8]	co-immunoprecipitation of phospho-eIF2α with FLAG-tagged eIF2B [9]	Molecule	eIF2B decamer formation [4]	stoichiometry N [10]
produced a shift to the decameric form	enhanced formation	enhanced formation of an (βδγε)2 octamer	had no effect	boosted	stimulated	formation of the decameric holoenzyme	significantly disrupted	O=C(COc1ccc(Cl)cc1)NC1CCC(NC(=O)COc2ccc(Cl)cc2)CC1 (stereo not shown) [ISRIB, reference compound]	promoted decamer formation at comparable levels	–
–	–	–	–	–	–	–	–	eIF2Bα (eukaryotic translation initiation factor 2B, α subunit), wild type, recombinant (natural protein, human, eIF2Bα, human, UniProt Q14232; called the small 34 kDa eIF2Bα subunit; C-terminal TEV-avi-FLAG tag; also called eIF2Bα2; α2) MDDKELIEYFKSQMKEDPDMASAVAAIRTLLEFLKRDKGETIQGLRANLTSAIETLCGVDSSVAVSSGGELFLRFISLASLEYSDYSKCKKIMIERGELFLRRISLSRNKIADLCHTFIKDGATILTHAYSRVVLRVLEAAVAAKKRFSVYVTESQPDLSGKKMAKALCHLNVPVTVVLDAAVGYIMEKADLVIVGAEGVVENGGIINKIGTNQMAVCAKAQNKPFYVVAESFKFVRLFPLNQQDVPDKFKYKADTLKVAQTGQDLKEEHPWVDYTAPSLITLLFTDLGVLTPSAVSDELIKLYL	–	2
